According to PubChem BioAssay (NCI):
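Grown in 96-well plates, cells were treated for 48 hours with each compound at five concentrations. Insufficient inhibition: endpoint recorded as highest concentration tested. GI50: concentration for 50% inhibition of growth. TGI: total growth inhibition.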

Columns and labels:
Assay in all cases: NCI tumour cell line growth inhibition, 48 h
[1] = tested on: IGROV1 ovarian
[2] = tested on: CCRF-CEM leukemia
[3] = tested on: SNB-75 CNS
[4] = tested on: LOX IMVI melanoma
[5] = tested on: M14 melanoma
[6] = tested on: MALME-3M melanoma
[7] = tested on: SF-539 CNS
[8] = tested on: 786-0 renal
[9] = tested on: BT-549 breast
[10] = tested on: NCI/ADR-RES ovarian

Compound | TGI [1] [µM] | TGI [2] [µM] | TGI [3] [µM] | TGI [4] [µM] | TGI [5] [µM] | TGI [6] [µM] | TGI [7] [µM] | TGI [8] [µM] | GI50 [1] [µM] | GI50 [9] [µM] | TGI [9] [µM] | GI50 [3] [µM] | GI50 [4] [µM] | GI50 [5] [µM] | GI50 [6] [µM] | GI50 [10] [µM] | TGI [10] [µM] | GI50 [8] [µM] | GI50 [2] [µM] | GI50 [7] [µM]
NC(=O)c1ncn(C2OC(CO)C(O)C2O)c1O (centres undefined) | > 100 | > 100 | > 100 | > 100 | > 100 | > 100 | > 100 | > 100 |  |  |  |  |  |  |  |  |  |  |  | 
Cc1[nH]c2cc([N+](=O)[O-])ccc2c1[N+](=O)[O-] | > 100 | 64.6 | 57.5 | 76.2 | 44 | 54.4 | 57.1 | > 100 |  |  |  |  |  |  |  |  |  |  |  | 
Cc1ccc(S(=O)(=O)C2CC2(Cl)Cl)cc1 (centres undefined) | 72.1 | 35 | > 100 | 35.6 | 29.2 | 48.8 | > 100 | 43.3 |  |  |  |  |  |  |  |  |  |  |  | 
O=C(C(=CN1CCN(C(=O)c2ccco2)C1=S)C(=O)c1ccccc1)c1ccccc1 | 40.9 |  | > 50 | 4.1 | 13.8 | 43.3 |  | 19.2 | 5.58 | 9.96 | 26.4 | 27.4 | 1.22 | 7 | 3.05 | 9.18 | 19 | 8.23 |  | 
CN(CCCCCl)P(=O)(OCc1ccc([N+](=O)[O-])o1)OCC1OC(n2cc([N+](=O)[O-])c(=O)[nH]c2=O)CC1O (centres undefined) | > 100 | > 100 |  | > 100 | > 100 | > 100 | > 100 | > 100 | > 100 | 46.2 | > 100 |  | 47.3 | 31.3 | > 100 | > 100 | > 100 | 12.7 | 66.8 | 4.51
COc1ccc(C(O)c2ccccn2)cc1 (centres undefined) | > 100 |  | > 100 | > 100 | > 100 | > 100 | > 100 | > 100 |  |  | > 100 |  |  |  |  |  | > 100 |  |  | 
CCCCOC(=O)NC(=O)c1cn(CCCOC(=O)CCCCCCCCC(=O)OCCCn2cc(C(=O)NC(=O)OCCCC)c(=O)n(C)c2=O)c(=O)n(C)c1=O | > 100 | > 100 | > 100 |  | > 100 | > 100 | > 100 | > 100 |  |  |  |  |  |  |  |  |  |  |  | 
COC(=O)[C@@]12C3=NO[C@]1(C(=O)OC)C(O[Si](C)(C)C(C)(C)C)[C@@H](OC(C)=O)[C@@H](OC(C)=O)[C@@H]2[C@@H](OCc1ccccc1)CC3 (some centres undefined) | > 100 | > 100 | > 73.7 | > 100 | > 100 | > 100 | > 100 | > 100 |  |  |  |  |  |  |  |  |  |  |  | 
O=C(Oc1c(Cl)cc(Cl)cc1Cl)c1ccccc1Nc1ccnc(C(F)(F)F)c1 | > 100 |  |  | 5.13 | 4.99 |  |  | 11.1 | > 100 | 2.42 | 6.98 |  | 1.99 | 2.13 |  |  |  | 2.95 |  | 
COc1ccc(/C=C/c2ccnc3ccccc23)cc1OC | 28.9 | 31 |  | 21.6 | 34.9 | 30.7 | 30 | > 100 |  |  |  |  |  |  |  |  | 40 |  |  | 
CC(=O)C1C(=O)C(=O)N(CCN2C(=O)C(=O)C(C(C)=O)C2=O)C1=O (centres undefined) | > 100 |  | > 100 | > 100 | > 100 | > 100 | > 100 | > 100 |  |  |  |  |  |  |  |  |  |  |  | 
CN(C)c1ccc2[nH]c3c(C(N)=O)cc(=O)c(=O)c=3oc2c1 | 14.2 | > 100 | 9.19 | > 100 | > 100 | 4.45 | 4.43 | 22.2 | 1.95 |  |  | 2.5 | 0.334 | 2.93 | 1.81 | 1.81 | 8.39 | 3.19 | 0.472 | 0.428
CCCCCCCCN=C(NCCCCCCCC)SCc1cccc2ccccc12 |  | 9.69 | 3.18 | 3.08 | 2.86 | 3.68 |  | 2.7 |  |  |  | 1.66 | 1.59 | 1.44 | 1.46 | 1.62 | 3.05 | 1.24 | 2.35 | 
COc1ccc(-c2[nH]ncc2Nc2cc(OC)c(OC)c(OC)c2)cc1 | > 100 | 19.4 | > 100 | > 100 | > 100 | > 26.1 |  | > 65.4 | 2.51 | 9.99 | > 89.6 | 1.52 | 6.13 | 0.906 | 2.04 | 1.86 | 25 | 6.2 | 1.5 | 
N#CC1=C(N)OC2=C(CCOc3c2ccc2ccccc32)C1c1ccc(Br)cc1 (centres undefined) |  | 54.2 |  |  | > 100 | 57.7 | > 100 | > 100 |  | > 100 | > 100 |  |  | 26.9 | 15.3 | 33.4 | > 100 | 44.9 | 16.8 | > 100
Cc1ccc(Nc2nc(-c3ccc(-c4ccc([N+](=O)[O-])cc4)o3)cs2)cc1 | > 100 |  | > 100 | > 100 | > 100 | > 100 | > 100 | > 100 |  |  |  |  |  |  |  |  |  |  |  | 
Cc1cc(Br)ccc1N=Nc1c(C)nn(-c2ccccc2)c1-c1ccccc1 | > 100 | > 100 | > 100 | > 100 | > 100 | > 100 | > 100 | > 100 |  |  |  |  |  |  |  |  |  |  |  | 
CC1=C[C@@H]2c3c(c(O)c(O)c4oc5cc(O)cc(O)c5c(=O)c34)[C@@H](c3cc(O)c(O)c4oc5cc(O)cc(O)c5c(=O)c34)[C@@H]2C(C)(C)C1 | 22.2 |  | 20.5 | 4.26 | 12.8 | 25.2 | 17.2 | 11.5 | 4.01 | 3.68 | 19.8 | 6.34 | 1.53 | 2.37 | 8.53 | 10.2 | 27.1 | 2.69 |  | 4.7
